The record followed here is patent US20250000879A1, “PHARMACEUTICAL COMPOSITION FOR PREVENTING DIABETES AND USE THEREOF” (HANYI BIO-TECHNOLOGY (BEIJING) CO., LTD., priority 2018, published 2025).

Series [1] has as its system mouse model of type 2 diabetes. The experiment in a line: Insulin tolerance test (ITT) in STZ and high-fat feed mouse model of type 2 diabetes. The settings on record: CBD 50 mg/kg by gavage once a day; one month after administration; FIG. 2C. The class given is in vivo, mice. As for the experimental part:
(§1) C57 male mice aged 4-6 weeks were used as experimental animals. The mice were fed with high-fat feed. After the mice were fasted for 10-12 hours, they were injected with 50 mg/kg of streptozotocin (STZ) intraperitoneally for 5 consecutive days. […] The mice were applied to Group 2 to 8 in the following step 2).
(§2) High-fat feed was formed by adding 60% fat to normal feed.

Series [2] concerns mouse model of type 2 diabetes. Kind of series: Glucose tolerance test (GTT) in STZ and high-fat feed mouse model of type 2 diabetes. The class given is in vivo, mice. The conditions noted are these: CBD 50 mg/kg by gavage once a day; one month after administration; FIG. 2B. As for the experimental part:
C57 male mice aged 4-6 weeks were used as experimental animals. The mice were fed with high-fat feed. After the mice were fasted for 10-12 hours, they were injected with 50 mg/kg of streptozotocin (STZ) intraperitoneally for 5 consecutive days. […] The mice were applied to Group 2 to 8 in the following step 2). High-fat feed was formed by adding 60% fat to normal feed. […] One month after administration (after the type 2 diabetes model was stabilized,), a glucose tolerance test (GTT) was carried out. The mice were fasted for 10 hours, and injected with 20% (w/w) glucose was intraperitoneally according to their body weights (10 μl/g).

For series [3], the system named is mouse lactic acidosis model. Kind of series: Blood lactic acid concentration in mouse lactic acidosis model induced by metformin. The class given is in vivo, mice. The conditions noted are these: FIG. 5. The procedure:
ICR male mice aged 4-6 weeks were used as experimental animals. The mice were administrated by gavage with metformin (260 mg/kg) for induction for three times, with an interval of 12 hours.
The mice were randomly divided into seven groups with five mice in each group: • Group 1: control group, no treatment; • Group 2: given water by gavage every day; • Group 3: given CBD by gavage once a day, 50 mg/kg; • Group 4: given 260 mg/kg of metformin by gavage in the morning and evening on the first day, and 260 mg/kg of metformin by gavage in the next morning, and sampled at […] in the next day; • Group 5: given 260 mg/kg of metformin by gavage in the morning and evening on the first day, and 260 mg/kg of metformin by gavage in the next morning, given 50 mg/kg of CBD at the same time metformin was given by gavage, and sampled at […] in the next day. • Group 6: injected with 260 mg/kg of metformin by caudal vein every other one hour for four times, and sampled one hour after the fourth injection; and • Group 7: given 50 mg/kg of CBD by gavage half an hour before caudal vein injection, injected with 260 mg/kg of metformin by caudal vein half an hour later, once every other hour, four times in total, and sampled one hour after the fourth injection. […]

For series [4], the system named is DB/DB mice (spontaneous type 2 diabetic mice). Kind of series: Blood glucose of DB/DB mice after administration treatment. The class given is in vivo. The conditions noted are these: CBD alone 50 mg/kg, intragastric, once a day. The procedure: In order to study the effect of combined use of CBD and metformin, adult DB/DB mice (spontaneous type 2 diabetic mice, purchased from Model Animal Center of Nanjing University) were randomly divided into 5 groups, with 6 mice in each group: • Group 1: control group, no treatment; • Group 2: CBD alone administration group (50 mg/kg); • Group 3: low-dose metformin group (100 mg/kg, calculated by referring to the lowest dose for human, and the dose for mice=9.1×the dose for human); • Group 4: low-dose metformin (100 mg/kg)+CBD (50 mg/kg) group; and • Group 5: high-dose metformin group (250 mg/kg, calculated by referring to the lowest dose for human, and the dose for mice=9.1×the dose for human).
Group 3 and Group 5 were both positive control groups of the treatment group, Group 3 was low-dose metformin group, and Group 5 was high-dose metformin group.
The administration routes of the above five groups were all intragastric administration, once a day
After 4 weeks of administration, blood glucose of mice in each group was measured.

Series [5] relates to mouse model of type 1 diabetes. Kind of series: Fasting blood glucose in STZ-induced mouse model of type 1 diabetes. In kind it is in vivo, mice. The conditions noted are these: FIG. 1A; for fasting blood glucose: after 10 days. The procedure: C57 male mice aged 4-6 weeks were used as experimental animals. After the mice were fasted for 10-12 hours, they were injected with 50 mg/kg of streptozotocin (STZ) intraperitoneally for 5 consecutive days. Fasting blood glucose levels of mice on the 6th and 10th days were measured to determine whether the induction was successful (the induction was considered successful when fasting blood glucose was greater than 11.1 mmol/L). The mice were applied to Group 2 to 6 in the following step 2).
The mice were randomly divided into 6 groups with 10 mice in each group: • Group 1: blank control group, fed with normal feed and intraperitoneally injected with a buffer solution at a dose of 100 μl/mouse, once a day for 5 consecutive days; • wherein, the buffer solution was a citric acid buffer solution with a concentration of 0.1 mol/L and pH of 4.2 and was sterilized by suction filtration. • Group 2: diabetes model group, fed with normal feed and intraperitoneally injected with streptozotocin; • Group 3: CBD prevention group, fed with normal feed, intraperitoneally injected with streptozotocin, and given CBD by gavage from the first day of induction, 50 mg/kg, once a day; • Group 4: CBD treatment group, fed with normal feed, intraperitoneally injected with streptozotocin, and given CBD by gavage after successful induction, 50 mg/kg, once a day; • Group 5: positive drug control group, fed with normal feed, intraperitoneally injected with streptozotocin, and injected with insulin after successful induction, 0.2 U/kg, once a day; and • Group 6: metformin group, fed with normal feed, intraperitoneally injected with streptozotocin, and given metformin by gavage after successful induction, 50 mg/kg, once a day.
(§3) Fasting blood glucose of mice in each group was detected every other three to four weeks; after one month of administration (the model was stable), a glucose tolerance test (GTT) was carried out. […] The blood glucose of the mice before injection (0 min) and at 15 min, 30 min, 60 min and 120 min after injection were measured respectively.

Series [6] has as its system mouse model of chronic renal failure induced by adriamycin. The experiment in a line: Urinary total protein in mice with chronic renal failure induced by adriamycin. The conditions noted are these: CBD 50 mg/kg by gavage once a day; urine on the 14th day of nephropathy induction; FIG. 7. The class given is in vivo. The procedure:
A mouse model of chronic renal failure induced by adriamycin was constructed according to a conventional method of inducing kidney injury. After CBD treatment for 14 days, urinary total protein level was measured. The specific method is as follows: Kunming white male mice aged 4-6 weeks were used as experimental animals. After the mice were fasted for 10-12 hours, they were injected with 50 mg/kg of streptozotocin (STZ) intraperitoneally for 5 consecutive days. […] On the 7th day after diabetes induction, the mice in the nephropathy group were injected with adriamycin at 10 mg/kg by caudal vein. The mice were applied to the Group 3 to 6 in the following step 2). The experimental animals were randomly divided into 6 groups with 10 animals in each group: • Group 1: control group, fed with normal saline; • Group 2: diabetes group; • Group 3: diabetes+CBD group; given CBD by gavage, 50 mg/kg, once a day; • Group 4: diabetes+adriamycin group; • Group 5: diabetes+adriamycin+CBD group; given CBD by gavage, 50 mg/kg, once a day; and • Group 6: diabetes+adriamycin+metformin group; given metformin by gavage, 50 mg/kg, once a day. After successfully inducing the mouse diabetes model, the mice were injected with adriamycin through caudal vein to induce nephropathy model. Urine was collected from the mice on the 14th day of the induction of nephropathy model, and urinary total protein was detected.

A further series concerns mouse diarrhea model. Kind of series: Diarrhea index in mouse diarrhea model induced by Folium Sennae. The class given is in vivo, mice. The conditions noted are these: days 1-7, FIG. 4A to 4G. As for the experimental part: ICR female mice of 4-6 weeks old were used as experimental animals. The mice ate and drank normally, and were given 8% (w/w) Folium Sennae solution by gavage, 0.2 ml/mouse. Diarrhea index of the mice was counted every other one and a half hours for 6 hours. Folium Sennae was purchased from Tongrentang Pharmacy in Beijing. The 8% (w/w) Folium Sennae solution was prepared by boiling 8 parts by weight of Folium Sennae and 92 parts by weight of water in a conical flask for 10 min.
The mice were randomly divided into 7 groups with 10 mice in each group: • Group 1: the mice were given the same volume of water by gavage every day; • Group 2: the mice were given 150 mg/kg of metformin by gavage every day; • Group 3: the mice were given 50 mg/kg of CBD by gavage every day; • Group 4: the mice were given 8% Folium Sennae solution by gavage every day; • Group 5: the mice were given a mixed solution of 8% Folium Sennae solution and 150 mg/kg of metformin by gavage every day; • Group 6: the mice were given a mixed solution of 8% Folium Sennae solution and 50 mg/kg of CBD by gavage every day; and • Group 7: the mice were given a mixed solution of 8% Folium Sennae solution, 150 mg/kg of metformin and 50 mg/kg of CBD by gavage every day.
Every day after gavage, the diarrhea index of each mouse was counted every other one and a half hours, 4 times in total […].
Diarrhea index=loose stool rate*loose stool grade
• Diarrhea rate: the number of animals with loose stools in this group/the total number of animals in this group*100%; • Loose stool rate: the number of loose stools per animal/the total number of stools; and • Loose stool grade: the hardness of loose stool graded according to the size of stains on filter paper with loose stool, as shown in Table 1 below.

The test system of series [7] is patients with type 2 diabetes. Kind of series: Fasting blood glucose and glycosylated hemoglobin in diabetic volunteers. The class given is in vivo, human. The conditions noted are these: oral CBD 300 mg/day, after 8 weeks, three patients. As for the experimental part:
Every patient received oral CBD treatment at 300 mg/day for 8 weeks. Fasting blood glucose was measured at the 0th, 4th and 8th weeks. Glycosylated hemoglobin value was measured at the 0th and 8th weeks. The results are shown in FIG. 8A and FIG. 8B, respectively.

The subject of series [8] is mouse model of type 1 diabetes. The experiment in a line: Glucose tolerance test (GTT) in STZ-induced mouse model of type 1 diabetes. In kind it is in vivo, mice. The settings on record: FIG. 1B. The procedure:
(§4) C57 male mice aged 4-6 weeks were used as experimental animals. After the mice were fasted for 10-12 hours, they were injected with 50 mg/kg of streptozotocin (STZ) intraperitoneally for 5 consecutive days. Fasting blood glucose levels of mice on the 6th and 10th days were measured to determine whether the induction was successful (the induction was considered successful when fasting blood glucose was greater than 11.1 mmol/L). The mice were applied to Group 2 to 6 in the following step 2). […]
as §3

The subject of series [9] is mouse model of type 2 diabetes. Kind of series: Fasting blood glucose in STZ and high-fat feed mouse model of type 2 diabetes. The class given is in vivo, mice. As for the experimental part:
as §1, §2

Series [10] has as its system mouse model of type 1 diabetes. The experiment in a line: Insulin tolerance test (ITT) in STZ-induced mouse model of type 1 diabetes. In kind it is in vivo, mice. The conditions noted are these: FIG. 1C. The procedure:
as §4
One week after GTT, an insulin tolerance test (ITT) was carried out. […] The blood glucose of the mice before injection (0 min) and at 15 min, 30 min, 60 min and 120 min after injection were measured respectively.

The subject of series [11] is diabetes model mice fed with high-fat feed. Kind of series: Serum lipid and insulin levels in mice induced by STZ and high-fat feed. The class given is in vivo. The settings on record: metformin alone, 100 or 250 mg/kg by gavage once a day; two months of treatment; FIG. 6E. The procedure: After the mice were fasted for 10-12 hours, they were injected with 50 mg/kg of streptozotocin (STZ) intraperitoneally for 5 consecutive days.

On to `C=C(C)[C@@H]1CCC(C)=C[C@H]1c1c(O)cc(CCCCC)cc1O` [CBD, Cannabidiol], for which the “insulin tolerance test (ITT), sensitivity to insulin” value in series [1] is “improve sensitivity of the mice to insulin”; in series [10] (CBD 50 mg/kg by gavage once a day, one week after GTT), “significantly enhance sensitivity of the mice to insulin”. Also, the “glucose tolerance test (GTT), regulation of glucose” value in series [2] is “improve regulation of glucose in the mice induced by STZ and high-fat feed”; in series [8] (CBD 50 mg/kg by gavage once a day, after one month of administration), “significantly enhance regulation of glucose in the mice”. Besides, the “lactic acid concentration in blood” value in series [3] (CBD 50 mg/kg by gavage with metformin 260 mg/kg (gavage or caudal vein)) is “significantly inhibit the increase of lactic acid in blood induced by metformin”. In addition, in series [4], the blood glucose result is listed as “reduce blood glucose”. Further, the “fasting blood glucose, CBD prevention group compared with CBD treatment group” value in series [5] (50 mg/kg by gavage once a day) is “the CBD prevention group had a better effect than the CBD treatment group”. The fasting blood glucose result in [5] (CBD prevention group: 50 mg/kg by gavage once a day from the first day of STZ induction) is “significantly reduce the blood glucose increase caused by STZ”; in [5] (CBD treatment group: 50 mg/kg by gavage once a day after successful induction) it was “significantly reduce the blood glucose increase caused by STZ”; in [7] (FIG. 8A) it was “decreased significantly”; in series [9] (CBD 50 mg/kg by gavage once a day, FIG. 2A), “significantly reduce the blood glucose elevation induced by STZ and high-fat feed”. Besides, the “urinary total protein level” value in series [6] is “significantly reduce urinary total protein level”. Besides, in the series on mouse diarrhea model (CBD 50 mg/kg with 8% Folium Sennae solution and 150 mg/kg metformin by gavage every day), the “diarrhea index, diarrhea induced and aggravated by metformin” value is given as “significantly alleviate”. Further, the “diarrhea index, diarrhea induced by Folium Sennae” value in the series on mouse diarrhea model (CBD 50 mg/kg with 8% Folium Sennae solution by gavage every day) is recorded as “significantly alleviate”. Also, the glycosylated hemoglobin result in series [7] (FIG. 8B) is on record as “improved significantly”. Moreover, the “GTT, CBD prevention group compared with CBD treatment group” value in [8] (50 mg/kg by gavage once a day) is given as “the CBD prevention group had a better effect than the CBD treatment group”. In [9] (50 mg/kg by gavage once a day, FIG. 2A to FIG. 2C), the “CBD prevention group compared with CBD treatment group (fasting blood glucose, GTT, ITT)” value was “the CBD prevention group had a better effect than the CBD treatment group”. Moreover, the “ITT, CBD prevention group compared with CBD treatment group” value in series [10] (50 mg/kg by gavage once a day) is “the CBD prevention group had a better effect than the CBD treatment group”.

`CN(C)C(=N)N=C(N)N` [metformin, Metformin, reference compound]: the “lactic acid concentration in blood” value in [3] (metformin 260 mg/kg, by gavage three times or by caudal vein four times) was “induce lactic acidemia”. In series [11], the “insulin level in serum (insulin secretion)” value is on record as “could not increase insulin secretion”. The diarrhea index result in the series with mouse diarrhea model (metformin 150 mg/kg with 8% Folium Sennae solution by gavage every day) is listed as “aggravate diarrhea induced by Folium Sennae”.
